Laboratory results reported in publication PMC9398908, “GLP-1-mediated delivery of tesaglitazar improves obesity and glucose metabolism in male mice” (Nature Metabolism, 2022).
Several values for one entry are separate records, joined by “and”; a condition that tells them apart may be missing. Equal values may be shown once.

Columns and labels:
hGLP-1R [1] = target: T1, hGLP-1R (Homo sapiens, UniProt P43220); assay: Ligand-induced hGLP-1R-Rluc8 internalization (loss of BRET with Venus-KRAS) in HEK293T cells; format: cell-based; settings: HEK293 cells transfected with human GLP-1R; dose response, Fig. 1c; in words
T1 construct: host or cells: HEK293T, transient transfection
Procedure: (§1) HEK293T cells (700,000 per well) were seeded in six-well plates and incubated to 70% confluency in DMEM (10% FBS, 1% Pen/Strep). Twenty-four hours following seeding, transient transfections were performed using Lipofectamine 2000 (catalogue no. 11668019, Invitrogen) according to the manufacturer’s protocol without including additional transformation carrier DNA.
(§2) Twenty-four hours following transfection, HEK293T cells or MIN6 cells were washed with PBS and resuspended in FluoroBrite phenol red-free complete media (catalogue no. A1896701, Life Technologies) containing 5% FBS and 2 mM of L-glutamine (catalogue no. 25030081, Life Technologies). 100,000 cells per well were plated into poly-D-lysine-coated (catalogue no. P6403, Sigma-Aldrich) 96-well white polystyrene LumiNunc plates (catalogue no. 10072151, Thermo Fisher Scientific). After 24 h, the media was replaced with PBS (catalogue no. 10010056, Gibco) containing 10 μM of coelenterazine-h (catalogue no. S2011, Promega) or 1:500 dilution of NanoGlo (catalogue no. N1110, Promega). BRET measurements were taken every 30 s–2 min using a PHERAstar FS multi-mode microplate reader. […] The resulting ligand-specific ratiometric BRET signals were normalized to vehicle producing the ‘ligand-induced BRET ratio’[37], followed by an additional normalization step to well-specific baseline readings.

hGLP-1R [2] = assay: Ligand-induced cAMP production (BRET) in mouse MIN6 β-cells; format: cell-based, human; settings: Fig. 1e, in words
Procedure: as §1, §2

hGLP-1R [3] = target: T1, hGLP-1R; assay: Ligand-induced hGLP-1R-Rluc8 internalization (BRET) in mouse MIN6 β-cells; format: cell-based; settings: Fig. 1f, in words
Procedure: as §1, §2

hGLP-1R [4] = target: T1, hGLP-1R; assay: hGLP-1R-Rluc8 co-localization with lysosome marker Lamp1-mNeonGreen (BRET) in HEK293T cells; format: cell-based; settings: HEK293 cells; Fig. 1g; in words
Procedure: as §1, §2

[5] = system: Fabp4, Plin2, Arntl, Sema3c; assay: PPAR target gene expression in liver (Fabp4, Plin2) and skeletal muscle (Arntl, Sema3c) of DIO mice (Fig. 2j–m); format: in vivo, mouse
Procedure: For assessment of acute drug effects, animals were treated with the respective compounds 4 h before tissue harvesting. Dissected tissues were frozen immediately on dry ice, and RNA was isolated using RNeasy Mini Kits (Qiagen). mRNA levels were determined using TaqMan probes for fatty acid binding protein 4 (Fabp4, Mm00445878_m1), perilipin-2 (Plin2, Mm00475794_m1), aryl hydrocarbon receptor nuclear translocator-like protein 1 (Arntl, Mm00500223_m), semaphorin 3 C (Sema3c, Mm00443121_m1) and hypoxanthine phosphoribosyltransferase 1 (Hprt, Mm03024075_m1) in custom-made low density array cards (Thermo Fisher) or in single assays on a QuantStudio 7 Real-Time PCR system. Target gene expression was normalized to HPRT and fold change was calculated relative to vehicle-treated controls.

db/db mice = assay: 4-day treatment of obese db/db mice (50 nmol/kg/day): body weight, food intake, glucose, tolerance test (Fig. 6); format: in vivo, mouse; design: blood glucose (legend: change in blood glucose) / AOC: unit not given here; settings: 4 days, 50 nmol kg−1 per day, individual mice
Procedure: Glp1r^−/− mice were kindly provided by D. Drucker (University of Toronto, Canada). All wildtype and knockout mice used in our studies were in-house bred on a C57BL/6J background. Mice were double-housed and kept in a constant environment with the ambient temperature set to 22 ± 2 °C with constant humidity (45–65%) and a 12 h/12 h light/dark cycle with lights off from 06:00 until 18:00. For studies in DIO mice, male C57BL/6J mice were fed with a high-fat diet comprising 58% kilocalories from fat (D12331, Research Diets). db/db mice were fed with a normal chow diet (T1314, Altromin GmbH) throughout the study. At the beginning of each experiment, mice were equally distributed into experimental groups according to their body weight and body composition. All animal studies were approved by the State of Bavaria, Germany, or the Insitutional Animal Care and Use Committee of the University of Cincinnati, OH, USA and conducted on the basis of the underlying animal welfare law of the respective countries. Compounds were dissolved in PBS and were s.c. administered with a volume of 5 μl g^−1 body weight in the indicated doses between 15:00 and 16:00.
Glucose tolerance was assessed in 6 h fasted mice after i.p injection of 1.75 g glucose per kg body weight (DIO mice). Insulin tolerance was assessed in 6 h fasted mice after i.p. injection of either 0.75 U Insulin per […] body weight (DIO mice) or 1 U Insulin per […] body weight (db/db mice) (Humalog, Eli Lilly). Tail vein blood glucose was subsequently measured using a handheld glucometer (TheraSense Freestyle) at baseline and after 15, 30, 60 and 120 min.

T1 sequence (P43220 24-463): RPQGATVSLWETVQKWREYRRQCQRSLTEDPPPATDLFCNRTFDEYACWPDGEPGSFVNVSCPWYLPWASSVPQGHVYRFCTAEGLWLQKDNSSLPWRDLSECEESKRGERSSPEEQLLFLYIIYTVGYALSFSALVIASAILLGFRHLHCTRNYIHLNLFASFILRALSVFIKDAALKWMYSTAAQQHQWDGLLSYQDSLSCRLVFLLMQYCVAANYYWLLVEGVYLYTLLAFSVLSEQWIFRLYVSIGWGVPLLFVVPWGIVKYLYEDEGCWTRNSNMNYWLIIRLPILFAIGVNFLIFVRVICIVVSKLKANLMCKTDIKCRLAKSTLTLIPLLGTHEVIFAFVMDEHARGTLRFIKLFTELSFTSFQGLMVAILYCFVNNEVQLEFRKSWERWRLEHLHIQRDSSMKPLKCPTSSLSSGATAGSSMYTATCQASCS

- GLP-1R internalization (hGLP-1R [1]): had no effect
- GLP-1R internalization (hGLP-1R [3]): had no effect
- lysosomal GLP-1R appearance (GLP-1R-Lamp1 colocalization) (hGLP-1R [4]): had no effect
Structure (SMILES): CCO[C@@H](Cc1ccc(OCCc2ccc(OS(C)(=O)=O)cc2)cc1)C(=O)O [tesaglitazar, (S)-2-ethoxy-3-(4-(4-((methylsulfonyl)oxy)phenethoxy)phenyl) propanoic acid]
- cAMP production (hGLP-1R [2]): had no effect
- expression of known PPAR target genes in liver (Fabp4, Plin2) and skeletal muscle (Arntl, Sema3c) ([5]; 30-week-old male DIO mice, 3 days, 50 nmol kg−1 per day, Fig. 2j–m, in words): induced expression of known PPAR target genes
- Fabp4 ([5]; DIO mice, Figure 2j, gene expression in liver, individual mice): 8.80 and 6.98 and 3.76 and 4.88 and 3.64 and 11.43 and 6.16 and 1.27
- Plin2 ([5]; DIO mice, Figure 2k, gene expression in liver, individual mice): 1.24 and 1.51 and 1.57 and 2.00 and 1.99 and 2.32 and 2.01 and 1.45
- Arntl ([5]; DIO mice, Figure 2l, gene expression in skeletal muscle, individual mice, sheet notes an outlier based on grubbs test): 1.55 and 1.75 and 2.01 and 1.16 and 1.39 and 1.34 and 1.60 and 1.28
- Sema3c ([5]; DIO mice, Figure 2m, gene expression in skeletal muscle, individual mice, sheet notes an outlier based on grubbs test): 1.70 and 1.69 and 1.38 and 1.05 and 1.02 and 1.72 and 1.95 and 2.14
- blood glucose (plasma glucose) (db/db mice; Fig. 6c): 482 and 462 and 314 and 500 and 452 and 446
- AOC (db/db mice; Fig. 6f, baseline-corrected): 9 and 124.5 and 63.27 and 252.8 and 257.2 and 64
- blood glucose (legend: change in blood glucose) (db/db mice; Fig. 6d): 33 and 120 and -49 and 69 and 52 and 7
